Results on 4 compounds are retold here after article PMC12298827, “Subchronic Toxicities of Four Per- and Polyfluoroalkyl Substances (PFASs) by Oral Exposure in Sprague–Dawley Rats” (Toxics, 2025).

Series [1] can be described thus: Parent chemical in rat plasma, 90-day study. The series is classed as in vivo. The settings on record: for concentration at 91 day: Sprague-Dawley, rat, plasma, oral; for Percentage of the dose in the plasma: 90 days. As for the experimental part:
Subchronic (90-day) studies were performed in accordance with current U.S. EPA’s Toxic Substances Control Act Good Laboratory Practice (GLP) Standards, with the following two general exceptions to the GLP guidelines: Analysis of the dose formulations was conducted according to RTI-approved Standard Operating Procedures, and corn oil (the vehicle) was not characterized (certificate of analysis from the vendor is available in the appendices to the final reports). Male and female Sprague–Dawley rats (five dose levels plus a control, n = 10/sex/dose group, corn oil vehicle dose volume of 3 mL/kg; oral gavage) were used in these studies, and the rats were euthanized on SD 91. The dose levels for PFHI were 0, 12.5, 25, 50, 100, and 200 mg/kg-day. The dose levels for MHFPK were 0, 18.8, 37.5, 75, 150, and 300 mg/kg-day. The dose levels for PFNAC were 0, 0.1, 0.3, 1.0, 3.0, and 10 mg/kg-day for male rats and 0, 0.3, 1.0, 3.0, 10, and 30 mg/kg-day for female rats. For CTFPA, the dose levels were 0, 1.9, 3.8. 7.5, 15, and 30 mg/kg-day for male rats and 0, 6.3, 12.5, 25, 50, and 100 mg/kg-day for female rats. For each PFAS, three batches of dosing solution were prepared. The time between the batch preparation of the dosing solutions ranged between 29 and 39 days. Blood samples were collected from all the rats at termination for serum chemistry, hematology, coagulation, and the analysis of the parent PFAS chemical in the plasma. In vivo data collection and further detail on the endpoints examined postmortem are described below.
On SD 1 of the 14-day study (~2 h post dosing), 0.2 mL of blood was collected via tail vein puncture in tubes containing K3EDTA and stored on wet ice. Prior to the scheduled euthanasia, blood (~1 mL) was collected from the jugular vein in tubes containing K3EDTA and stored on wet ice on SD 15, for the 14-day study, and SD 91, for the 90-day study. All the tubes were centrifuged at an ~1500 relative centrifugal force within 1 h of collection for 15 min at 5 ± 3 °C. The plasma was stored at −75 ± 15 °C until the analysis. PFNAC and PFHI were analyzed using a headspace GC–mass spectrometry (MS) method, as summarized in Table S3, and CTFPA was analyzed using an ultra-HPLC-MS method, as summarized in Table S4. The MHFPK samples were not analyzed because a method suitable for plasma was not available. The details concerning the preparation of the samples, method blanks, and matrix and QC standards for the analysis are available in the appendices to the study reports.

A further series deals with male SD rats. As to the kind of experiment: Single-dose tolerability study, oral gavage. It counts as in vivo, rat. The settings on record: single oral dose in corn oil, n = 3/dose. How it is done:
Tolerability, 14-day dose-range-finding, and 90-day subchronic toxicity studies were conducted at Inotiv (Gaithersburg, MD, USA), monitored by the Research Triangle Institute (RTI) (Durham, NC, USA) and sponsored and funded by the EPA. Tolerability studies used four PFAS dose levels plus a control, with the high doses not to exceed 1000 mg/kg (subject to solubility in corn oil, dose volume of 5 or 10 mL/kg) and lower doses separated by threefold spacing. The dose levels for PFHI, MHFPK, and CTFPA were […]. The dose levels for PFNAC were 0, 25, 75, 225, and 667 mg/kg. Tolerability was studied using male rats (n = 3 rats/group) that received a single dose by oral gavage. The rats were euthanized at 48 hours post dosing. The data collected were bodyweight (BW) and BW changes (BWCs), feed consumption (FC) and water consumption (WC), cage-side observations, and physical exams; no necropsies were performed.

As to `O=C(O)C(F)(Cl)C(F)(F)F` (stereo not shown) [CTFPA, 2-Chloro-2,3,3,3-tetrafluoropropanoic acid], the concentration at 91 day in series [1] (female, Day 91, 6.3 mg/kg-day) came to 12600 ng/mL; in series [1] (female, Day 91, 12.5 mg/kg-day), 24700 ng/mL; in series [1] (female, Day 91, 25 mg/kg-day), 51000 ng/mL; in series [1] (female, Day 91, 50 mg/kg-day) it was 71500 ng/mL; in series [1] (female, Day 91, 100 mg/kg-day) it was 116000 ng/mL; in series [1] (male, Day 91, 1.9 mg/kg-day), 12600 ng/mL. In addition, the concentration at 91 day amounted to 22300 ng/mL in series [1] (male, Day 91, 3.8 mg/kg-day); 43300 ng/mL in series [1] (male, Day 91, 7.5 mg/kg-day); 62100 ng/mL in series [1] (male, Day 91, 15 mg/kg-day); 84400 ng/mL in series [1] (male, Day 91, 30 mg/kg-day). In addition, the “Percentage of the dose in the plasma” value stood at 4.48 ± 1.63% in series [1] (female, 100 mg/kg-day) and 10.82 ± 2.76% in series [1] (male, 30 mg/kg-day). Also, the Summary of observations result in the series on male SD rats is “No mortality and no effect on absolute bodyweight gains or water consumption; clinical observations of low activity, decreased bodyweight and decreased feed consumption at high doses”.
With `FC(F)(F)C(F)(F)C(F)(F)C(F)(F)CCI` [PFHI, 1H,1H,2H,2H-Perfluorohexyl iodide], the concentration at 91 day in series [1] (female, Day 91, 50 mg/kg-day) stood at 12.2 ± 9.91 ng/mL; in series [1] (female, Day 91, 100 mg/kg-day) it was 48.3 ± 22.9 ng/mL; in series [1] (female, Day 91, 200 mg/kg-day), 76.7 ± 24.1 ng/mL; in series [1] (male, Day 91, 200 mg/kg-day), 52.4 ± 24.1 ng/mL. Besides, the “Parent chemical in plasma” value in series [1] (female, Day 91, 12.5 mg/kg-day) is “BLOD (below the limit of detection—1.7 ng/mL)”; in series [1] (female, Day 91, 25 mg/kg-day) it was “<BLOD/≤LOQ”; in series [1] (male, Day 91, 12.5 mg/kg-day) it was “BLOD (below the limit of detection—1.7 ng/mL)”; in series [1] (male, Day 91, 25 mg/kg-day) it was “<BLOD/≤LOQ”; in series [1] (male, Day 91, 50 mg/kg-day), 14.0 ± 6.21 ng/mL; in series [1] (male, Day 91, 100 mg/kg-day), 43.8 ± 7.53 ng/mL. Besides, the Summary of observations result in the series with male SD rats is “No mortality and no abnormal clinical observations, no effect on bodyweight; some bodyweight changes in high-dose group were considered as chemical-related”.
Take `CC(=O)C(F)(F)C(F)(F)C(F)(F)F` [MHFPK, Methyl heptafluoropropyl ketone]: the Summary of observations result in the series with male SD rats is “No mortality. Clinical signs of low activity and minimal ataxia on study day 1 at 1000 mg/kg, with recovery on the following two observation days”.
Take `C=CC(=O)OCC(F)(F)C(F)(F)C(F)(F)C(F)(F)C(F)(F)C(F)(F)C(F)(F)C(F)F` [PFNAC, 1H,1H,9H-Perfluorononyl acrylate]: the “Parent chemical in plasma” value is “Parent chemical not detected at the highest dose” in series [1] (female, Day 91, highest dose 30 mg/kg-day) and “Parent chemical not detected at the highest dose” in series [1] (male, Day 91, highest dose 10 mg/kg-day). The Summary of observations result in the series on male SD rats is “No mortality and no abnormal clinical observations, some lowering of bodyweight, bodyweight changes, and feed consumption in all the treated groups not reaching statistical significance”.
